The subject of data set [1] is Cirsium arvense (canada thistle). Nature of the data set: Postemergence herbicidal activity, visual % control. Format: in vivo. The conditions noted are these: post-emergence, 336 h, post-emergent, after 14 days, 0 = no injury, 100 = complete kill, read-out: % Control CIRAR; for pest or weed control at 280 g/ha: 280 g ai/ha; for pest or weed control at 140 g/ha: 140 g ai/ha. The method, then: (§1) Seeds or nutlets of the desired test plant species were planted in Sun Gro MetroMix® 306 planting mixture, which typically has a pH of 6.0 to 6.8 and an organic matter content of about 30 percent, in plastic pots with a surface area of 64 square centimeters. When required to ensure good germination and healthy plants, a fungicide treatment and/or other chemical or physical treatment was applied. The plants were grown for 7-21 days in a greenhouse with an approximate 15 hour photoperiod which was maintained at about 23-29° C. during the day and 22-28° C. during the night. Nutrients and water were added on a regular basis and supplemental lighting was provided with overhead metal halide 1000-Watt lamps as necessary. The plants were employed for testing when they reached the first or second true leaf stage.
(§2) A weighed amount, determined by the highest rate to be tested, of each test compound was placed in a 25 mL glass vial and was dissolved in 4 mL of a 97:3 v/v (volume/volume) mixture of acetone and dimethyl sulfoxide (DMSO) to obtain concentrated stock solutions. […] The concentrated stock solutions obtained were diluted with 20 mL of an aqueous mixture containing acetone, water, isopropyl alcohol, DMSO, Atplus 411F crop oil concentrate, and Triton® X-155 surfactant in a 48.5:39:10:1.5:1.0:0.02 v/v ratio to obtain spray solutions containing the highest application rates. Additional application rates were obtained by serial dilution of 12 mL of the high rate solution into a solution containing 2 mL of 97:3 (v/v) mixture of acetone and dimethyl sulfoxide (DMSO) and 10 mL of an aqueous mixture containing acetone, water, isopropyl alcohol, DMSO, Atplus 411F crop oil concentrate, and Triton X-155 surfactant in a 48.5:39:10:1.5:1.0:0.02 (v/v) ratio to obtain ½X, ¼X, ⅛X and 1/16X rates of the high rate. Compound requirements are based upon a 12 mL application volume at a rate of 187 L/ha. Formulated compounds were applied to the plant material with an overhead Mandel track sprayer equipped with a 8002E nozzles calibrated to deliver 187 L/ha over an application area of 0.503 square meters at a spray height of […] above the average plant canopy height. Control plants were sprayed in the same manner with the solvent blank.
(§3) The treated plants and control plants were placed in a greenhouse as described above and watered by sub-irrigation to prevent wash-off of the test compounds. After 14 days, the condition of the test plants as compared with that of the untreated plants was determined visually and scored on a scale of 0 to 100 percent where 0 corresponds to no injury and 100 corresponds to complete kill

Data set [2] concerns Amaranthus retroflexus (pigweed). Described as above. Format: in vivo. The conditions noted are these: post-emergence, 336 h, post-emergent, after 14 days, 0 = no injury, 100 = complete kill, read-out: % Control AMARE; for pest or weed control at 280 g/ha: 280 g ai/ha; for pest or weed control at 140 g/ha: 140 g ai/ha. The method, then:
as §1, §2, §3

For data set [3], the system named is Chenopodium album (lambsquarters). The description is as above. Format: in vivo. The settings on record: post-emergence, 336 h, post-emergent, after 14 days, 0 = no injury, 100 = complete kill, read-out: % Control CHEAL; for pest or weed control at 280 g/ha: 280 g ai/ha; for pest or weed control at 140 g/ha: 140 g ai/ha. The method, then: as §1, §2, §3
For data set [4], the system named is Polygonum convolvulus (wild buckwheat). The data set is described as above. The conditions noted are these: Fallopia convolvulus, post-emergence, 336 h, post-emergent, after 14 days, 0 = no injury, 100 = complete kill, read-out: % Control POLCO; for pest or weed control at 280 g/ha: 280 g ai/ha; for pest or weed control at 140 g/ha: 140 g ai/ha. Format: in vivo. The method, then:
as §1, §2, §3

In data set [5] the test system is Triticum aestivum (spring wheat). Described as above. Format: in vivo. The settings on record: post-emergence, 336 h, post-emergent, after 14 days, 0 = no injury, 100 = complete kill, read-out: % Control TRZAS; for plant injury at 280 g/ha: 280 g ai/ha; for plant injury at 140 g/ha: 140 g ai/ha. The method, then:
as §1, §2, §3

One may read the melting point as the temperature of the solid-liquid transition.

SMILES strings stand for the structures.

Consider `C=Cc1c(N)cc(Cl)nc1C(=O)OC` [Compound 3, methyl 4-amino-6-chloro-3-vinylpicolinate], for which the melting point lay in the range of 53 to 54 °C. For the same compound, in data set [1], the pest or weed control at 280 g/ha was 100%. In addition, the pest or weed control at 280 g/ha in data set [2] was 100%. Further, the pest or weed control at 280 g/ha in data set [3] was determined as 100%. Moreover, the pest or weed control at 280 g/ha in data set [4] stood at 100%. For the same compound, the plant injury at 280 g/ha in data set [5] worked out at 20%.

The compound `C=Cc1c(C(=O)OC)nc(Cl)c(Cl)c1N` [Compound 1, methyl 4-amino-5,6-dichloro-3-vinylpicolinate] displayed a melting point of 96 to 97 °C. Further, the pest or weed control at 280 g/ha in data set [1] was determined as 95%. Further, in data set [2], the pest or weed control at 280 g/ha is 100%. In data set [3], the pest or weed control at 280 g/ha is 100%. In data set [4], the pest or weed control at 280 g/ha turned out to be 100%. Moreover, the plant injury at 280 g/ha in data set [5] was found to be 0%.

For `C=Cc1c(N)cc(Cl)nc1C(=O)O` [Compound 11, 4-amino-6-chloro-3-vinylpicolinic acid], the melting point was 146 to 148 °C. For the same compound, in data set [1], the pest or weed control at 280 g/ha came to 10%. Also, the pest or weed control at 280 g/ha in data set [3] was 100%. Also, in data set [5], the plant injury at 280 g/ha was 50%.

With `C=Cc1c(C(=O)O)nc(Cl)c(Cl)c1N` [Compound 10, 4-amino-5,6-dichloro-3-vinylpicolinic acid], the melting point is 190 to 193 °C (dec.). The pest or weed control at 280 g/ha in data set [1] is 100%. For the same compound, the pest or weed control at 280 g/ha in data set [2] amounted to 100%. Moreover, in data set [3], the pest or weed control at 280 g/ha was 100%. Besides, the plant injury at 280 g/ha in data set [5] turned out to be 20%.

As to `C/C=C\c1c(C(=O)OC)nc(Cl)c(F)c1N` [Compound 4, (Z)-methyl 4-amino-6-chloro-5-fluoro-3-(prop-1-en-1-yl)picolinate], the pest or weed control at 140 g/ha is 85% in data set [1], 100% in data set [2], 100% in data set [3] and 40% in data set [4]. In addition, the plant injury at 140 g/ha in data set [5] was found to be 0%.

In turn, `C/C=C\c1c(C(=O)O)nc(Cl)c(F)c1N` [Compound 12, (Z)-4-amino-6-chloro-5-fluoro-3-(prop-1-en-l-yl)picolinic acid] displayed a melting point of 141 to 143 °C. Moreover, the pest or weed control at 140 g/ha in data set [1] came to 80%. In data set [2], the pest or weed control at 140 g/ha is 100%. Further, the pest or weed control at 140 g/ha in data set [3] was found to be 100%. Moreover, the pest or weed control at 140 g/ha in data set [4] is 85%. Further, the plant injury at 140 g/ha in data set [5] amounted to 10%.

The compound `C[Si](C)(C)/C=C/c1c(C(=O)O)nc(Cl)c(F)c1N` [Compound 15, (E)-4-amino-6-chloro-5-fluoro-3-(2-(trimethylsilyl)vinyl)picolinic acid] returned a melting point of 100 to 105 °C. The pest or weed control at 140 g/ha in data set [1] amounted to 65%. Further, the pest or weed control at 140 g/ha in data set [3] stood at 80%. Also, the plant injury at 140 g/ha in data set [5] was 0%.

As for `C=C(F)c1c(C(=O)OC)nc(Cl)c(F)c1N` [Compound 6, methyl 4-amino-6-chloro-5-fluoro-3-(1-fluorovinyl)picolinate], the melting point was in the range of 98 to 100 °C. Besides, the pest or weed control at 140 g/ha in data set [1] is 75%. In addition, the pest or weed control at 140 g/ha in data set [2] is 20%. Also, the pest or weed control at 140 g/ha in data set [3] was 90%. Besides, the pest or weed control at 140 g/ha in data set [4] is 90%. Moreover, the plant injury at 140 g/ha in data set [5] was found to be 0%.

For the compound `COC(=O)c1nc(Cl)c(F)c(N)c1/C=C/Cl` [Compound 8, (E)-methyl 4-amino-6-chloro-3-(2-chlorovinyl)-5-fluoropicolinate], the melting point was 128 to 130 °C. In addition, in data set [1], the pest or weed control at 140 g/ha was 70%. Moreover, in data set [2], the pest or weed control at 140 g/ha came out at 90%. For the same compound, the pest or weed control at 140 g/ha in data set [3] was found to be 90%. The pest or weed control at 140 g/ha in data set [4] was found to be 60%. For the same compound, in data set [5], the plant injury at 140 g/ha amounted to 0%.

As for `C=C(F)c1c(C(=O)O)nc(Cl)c(F)c1N` [Compound 14, 4-amino-6-chloro-5-fluoro-3-(1-fluorovinyl)picolinic acid], the pest or weed control at 140 g/ha was determined as 100% in data set [1], 50% in data set [2], 90% in data set [3] and 90% in data set [4]. Moreover, in data set [5], the plant injury at 140 g/ha amounted to 0%.

As for `C=Cc1c(C(=O)OC)nc(Cl)c(F)c1N` [Compound 2, methyl 4-amino-6-chloro-5-fluoro-3-vinylpyridine-2-carboxylate], the melting point lay within 99 to 100 °C. Further, in data set [1], the pest or weed control at 140 g/ha worked out at 70%. Also, the pest or weed control at 140 g/ha in data set [2] is 100%. Besides, in data set [3], the pest or weed control at 140 g/ha was 90%. Further, in data set [5], the plant injury at 140 g/ha was 55%.

As to `COC(=O)c1nc(Cl)c(F)c(N)c1/C=C/[Si](C)(C)C` [Compound 7, (E)-methyl 4-amino-6-chloro-5-fluoro-3-(2-(trimethylsilyl)vinyl)picolinate], the melting point fell in the range of 103 to 105 °C. For the same compound, the pest or weed control at 140 g/ha in data set [1] came to 55%. Moreover, the pest or weed control at 140 g/ha in data set [2] came to 90%. Moreover, the pest or weed control at 140 g/ha in data set [3] was 100%. In data set [4], the pest or weed control at 140 g/ha was 50%. Further, in data set [5], the plant injury at 140 g/ha worked out at 0%.

In turn, `Nc1c(F)c(Cl)nc(C(=O)O)c1/C=C/Cl` [Compound 16, (E)-4-amino-6-chloro-3-(2-chlorovinyl)-5-fluoropicolinic acid] yielded a melting point of 152 to 157 °C. Moreover, the pest or weed control at 140 g/ha in data set [1] was 75%. Further, the pest or weed control at 140 g/ha in data set [2] turned out to be 90%. For the same compound, in data set [3], the pest or weed control at 140 g/ha was determined as 100%. For the same compound, in data set [4], the pest or weed control at 140 g/ha came out at 10%. In addition, in data set [5], the plant injury at 140 g/ha was found to be 80%.

`C/C=C/c1c(C(=O)OC)nc(Cl)c(F)c1N` [Compound 5, (E)-methyl 4-amino-6-chloro-5-fluoro-3-(prop-1-en-1-yl)picolinate] displayed a melting point of 107 to 109 °C. For the same compound, in data set [1], the pest or weed control at 140 g/ha worked out at 65%. Further, the pest or weed control at 140 g/ha in data set [2] stood at 0%. The pest or weed control at 140 g/ha in data set [3] worked out at 90%. Besides, the pest or weed control at 140 g/ha in data set [4] came to 20%. In addition, in data set [5], the plant injury at 140 g/ha is 0%.

The compound `C=Cc1c(C(=O)O)nc(Cl)c(F)c1N` [Compound 9, 4-amino-6-chloro-5-fluoro-3-vinylpicolinic acid] returned a melting point of 164 to 166 °C. The pest or weed control at 140 g/ha in data set [1] is 100%. In data set [2], the pest or weed control at 140 g/ha came to 100%. Besides, the pest or weed control at 140 g/ha in data set [3] worked out at 100%. The plant injury at 140 g/ha in data set [5] came to 50%.

The compound `C/C=C/c1c(C(=O)O)nc(Cl)c(F)c1N` [Compound 13, (E)-4-amino-6-chloro-5-fluoro-3-(prop-1-en-l-yl)picolinic acid] gave a melting point of 153 to 155 °C. Also, the pest or weed control at 140 g/ha in data set [1] was 70%. Besides, the pest or weed control at 140 g/ha in data set [2] amounted to 60%. In addition, the pest or weed control at 140 g/ha in data set [3] is 85%. The pest or weed control at 140 g/ha in data set [4] amounted to 60%. Further, the plant injury at 140 g/ha in data set [5] came out at 30%.
